The target of the assay is T1, Estrogen receptor (Homo sapiens, UniProt P03372).
T1 sequence (P03372 whole entry): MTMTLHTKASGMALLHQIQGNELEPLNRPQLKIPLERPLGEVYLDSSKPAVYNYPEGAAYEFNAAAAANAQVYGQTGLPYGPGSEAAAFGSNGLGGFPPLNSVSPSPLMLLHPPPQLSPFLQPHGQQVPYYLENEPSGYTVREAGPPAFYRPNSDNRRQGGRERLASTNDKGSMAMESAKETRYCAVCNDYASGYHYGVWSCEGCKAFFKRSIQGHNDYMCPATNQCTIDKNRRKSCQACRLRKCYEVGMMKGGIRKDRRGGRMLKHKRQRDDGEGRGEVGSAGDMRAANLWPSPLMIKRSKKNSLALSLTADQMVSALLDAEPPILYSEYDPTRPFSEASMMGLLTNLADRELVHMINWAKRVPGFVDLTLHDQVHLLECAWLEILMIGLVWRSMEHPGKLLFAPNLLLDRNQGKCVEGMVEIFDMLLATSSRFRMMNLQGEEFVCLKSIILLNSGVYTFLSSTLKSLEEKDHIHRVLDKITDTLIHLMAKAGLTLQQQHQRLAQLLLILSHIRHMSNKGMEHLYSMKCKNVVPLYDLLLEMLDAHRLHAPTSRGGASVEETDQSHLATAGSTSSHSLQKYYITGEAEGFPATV
Put plainly: Binding affinity for Estrogen receptor alpha.

The term EC50 denotes the concentration giving half of the maximal effect. Low readings indicate an effect from little substance, high ones a need for much substance. `O=c1c(-c2ccc(O)cc2)c(Oc2ccc(O)cc2)oc2cc(O)ccc12` came in with an EC50 of 1.74 µM.
On the same count and under the same terms, the same measure for `O=c1c(-c2ccc(O)cc2)c(Oc2ccc(OCCN3CCCCC3)cc2)oc2cc(O)ccc12`: 0.2 µM.
In general, Ki refers to a measure of affinity in units of concentration, obtained from inhibition or displacement. As to `O=C(c1ccc(OCCN2CCCCC2)cc1)c1oc2cc(O)ccc2c(=O)c1-c1ccc(O)cc1`, the affinity corresponds to a Ki of 0.0039 µM.
In turn, `O=c1c(-c2ccc(O)cc2)c(Sc2ccc(O)cc2)oc2cc(O)ccc12` registered an EC50 of 1.86 µM.
Still for that read-out and setting: for `O=c1c(-c2ccc(O)cc2)c(Sc2ccc(OCCN3CCCCC3)cc2)oc2cc(O)ccc12` the value was 0.77 µM.

The values are drawn from ChEMBL document CHEMBL1136709, “Synthesis and estrogen receptor binding affinities of 7-hydroxy-3-(4-hydroxyphenyl)-4H-1-benzopyran-4-ones containing a basic side chain” (Bioorg Med Chem Lett, 2003).
